The target of the data set is MALAT1. As to conditions: ASO, A431, 0.005 µM.

Where “and” joins values, the source holds several entries; their conditions need not be identical. Identical values can stand only once. After the bases stand the sugars from the 5' end (letter, count) and the backbone: PS all phosphorothioate, else s phosphorothioate and o phosphodiester by linkage. Methylation of C is not given here. e = 2'-O-(2-methoxyethyl) (MOE); k = constrained ethyl (cEt); d = 2'-deoxy (DNA)

On to ACGAAACATTGGCACA (sugars k3 d10 k3, PS), for which the target mRNA inhibition is 62% and 40%.

Consider AGTATTACTCTAATCA (sugars k3 d10 k3, PS), for which the target mRNA inhibition was determined as 23%.

CGAAGAGATACCTGTC (sugars k3 d10 k3, PS): the target mRNA inhibition was 23%.

CAACAATTTAGAGCTT (sugars k3 d10 k3, PS): the target mRNA inhibition worked out at 12%.

Turning to CTCCAATACTTGTCTT (sugars k3 d10 k3, PS), the target mRNA inhibition is 54% and 44%.

Regarding TTCGATCACCTTCCGC (sugars k3 d10 k3, PS), the target mRNA inhibition amounted to 12%.

CCCAAATTAATGCACT (sugars k3 d10 k3, PS): the target mRNA inhibition was 51% and 42%.

With ATTTAAGGCCTTCCAA (sugars k3 d10 k3, PS), the target mRNA inhibition was 30%.

Turning to GCCTTGCAGGGACGGT (sugars k3 d10 k3, PS), the target mRNA inhibition was -10%.

As to CAGCACATCATGCTAT (sugars k3 d10 k3, PS), the target mRNA inhibition worked out at 15%.

With CCAAACAACTTTTGCA (sugars k3 d10 k3, PS), the target mRNA inhibition stood at 44%.

On to TCATCTCAACCTCCGT (sugars k3 d10 k3, PS), for which the target mRNA inhibition is 57% and 49%.

Take AATTACTCTTGATCTT (sugars k3 d10 k3, PS): the target mRNA inhibition stood at 51%.

Turning to TTCAGGATCATTAAGC (sugars k3 d10 k3, PS), the target mRNA inhibition amounted to 18%.

Take AAGGTTACCATAAGTA (sugars k3 d10 k3, PS): the target mRNA inhibition turned out to be 46%.

Consider ATTAAGAGCTGCTATA (sugars k3 d10 k3, PS), for which the target mRNA inhibition is -4%.

As for TCAAGGTCTTTTAATC (sugars k3 d10 k3, PS), the target mRNA inhibition was 41%.

Take AAAGTGGTTGCCCGCT (sugars k3 d10 k3, PS): the target mRNA inhibition is 15%.

For the sequence ACAGATTAGTAGTCAA (sugars k3 d10 k3, PS), the target mRNA inhibition was determined as 9%.

In the case of CCAGGAGTGCCAACCA (sugars k3 d10 k3, PS), the target mRNA inhibition was 5%.

Regarding CTTCAGGATCATTAAG (sugars k3 d10 k3, PS), the target mRNA inhibition is 3%.

Take AGGATGAAATGCCTCT (sugars k3 d10 k3, PS): the target mRNA inhibition is 22%.

In the case of CACGAACTGCTGCTTG (sugars k3 d10 k3, PS), the target mRNA inhibition amounted to 55%.

Regarding ACTCTTGATCTTGAAT (sugars k3 d10 k3, PS), the target mRNA inhibition was 43%.

For AAAAAGTAGTTCTTCG (sugars k3 d10 k3, PS), the target mRNA inhibition came out at 16%.

For the sequence TAAGACCATCCCAAAA (sugars k3 d10 k3, PS), the target mRNA inhibition is 16%.

Consider CTCGCCTCCTCCGTGT (sugars k3 d10 k3, PS), for which the target mRNA inhibition was determined as 10%.

Turning to TGCCTTTACTTATCAA (sugars k3 d10 k3, PS), the target mRNA inhibition turned out to be 26%.

With AAACCGATTATGGATC (sugars k3 d10 k3, PS), the target mRNA inhibition was determined as 3%.

As to ATCCCTAACATGCAAT (sugars k3 d10 k3, PS), the target mRNA inhibition came to 23%.

With GTGTGGTTGCCAAGCC (sugars k3 d10 k3, PS), the target mRNA inhibition is 43% and 37% and 50%.

As to GAATTACTTCCGTTAC (sugars k3 d10 k3, PS), the target mRNA inhibition turned out to be 36%.

On to CGGATTTTTACCAACC (sugars k3 d10 k3, PS), for which the target mRNA inhibition amounted to 38%.

On to GAAGAATCCCCCCCAA (sugars k3 d10 k3, PS), for which the target mRNA inhibition is 11%.

GGAGATCAGCTTCCGC (sugars k3 d10 k3, PS): the target mRNA inhibition was -7%.

With TAAAGTCTGATTAAGG (sugars k3 d10 k3, PS), the target mRNA inhibition came out at 4%.

As to TACTGAAAACTCCCCC (sugars k3 d10 k3, PS), the target mRNA inhibition worked out at 22%.

As for TGTCAATTTATAGACC (sugars k3 d10 k3, PS), the target mRNA inhibition was 6%.

For CAGGCTATTACCTGAA (sugars k3 d10 k3, PS), the target mRNA inhibition was -14%.

With AAGAGTAACTACCAGC (sugars k3 d10 k3, PS), the target mRNA inhibition amounted to 6%.

Consider CACGGCCCGCACGGAA (sugars k3 d10 k3, PS), for which the target mRNA inhibition is -1%.

As for TTTTAATCACCTTCGG (sugars k3 d10 k3, PS), the target mRNA inhibition is 44%.

Turning to TGTACTATCCCATCAC (sugars k3 d10 k3, PS), the target mRNA inhibition is 51% and 71%.

For the sequence CACTGCAAGGTCTCAT (sugars k3 d10 k3, PS), the target mRNA inhibition was determined as 41%.

Consider TCAATGCCTACCGCAC (sugars k3 d10 k3, PS), for which the target mRNA inhibition was 3%.

Take TTTAACTTCCCCCAGC (sugars k3 d10 k3, PS): the target mRNA inhibition was -2%.

With CTTGACCTTAGGATAA (sugars k3 d10 k3, PS), the target mRNA inhibition amounted to 44%.

As to CTCAGTACGAAACTCC (sugars k3 d10 k3, PS), the target mRNA inhibition worked out at 30%.

For TGAAGGATGAAATGCC (sugars k3 d10 k3, PS), the target mRNA inhibition came to 29%.

On to TTACACATCCAAACTC (sugars k3 d10 k3, PS), for which the target mRNA inhibition is 1%.

GGAAATCTTAGAAACG (sugars k3 d10 k3, PS): the target mRNA inhibition was 36%.

Turning to CACGGATTTTTACCAA (sugars k3 d10 k3, PS), the target mRNA inhibition came out at 19%.

For the sequence GTTATGCCTGGTTAGG (sugars k3 d10 k3, PS), the target mRNA inhibition was 16%.

Turning to GGACATTGCCTCTTCA (sugars k3 d10 k3, PS), the target mRNA inhibition turned out to be 54%.

Take GAAGTCTCGGGCTGCA (sugars k3 d10 k3, PS): the target mRNA inhibition is 6%.

CTGGCATGCTGGTCTA (sugars k3 d10 k3, PS): the target mRNA inhibition is 19%.

Consider AGCCTTCAGAGATTCA (sugars k3 d10 k3, PS), for which the target mRNA inhibition was 75% and 91%.

As for AAGACCTCGACACCAT (sugars k3 d10 k3, PS), the target mRNA inhibition was determined as 44%.

With GAAAGTGCCATGGTTG (sugars k3 d10 k3, PS), the target mRNA inhibition was 41%.

For the sequence GTATGAGCTTCAGACC (sugars k3 d10 k3, PS), the target mRNA inhibition was -6%.

In the case of GGGATTTGAACCCCGT (sugars k3 d10 k3, PS), the target mRNA inhibition is -1%.

ACCTTCTAACTTCTGC (sugars k3 d10 k3, PS): the target mRNA inhibition was 64% and 42%.

For TCCGCCGCCTCTTAAA (sugars k3 d10 k3, PS), the target mRNA inhibition amounted to 26%.

Regarding CATGAGTTTATCTGCA (sugars k3 d10 k3, PS), the target mRNA inhibition was -6%.

Turning to ACAGTAGGTATAGTTT (sugars k3 d10 k3, PS), the target mRNA inhibition is 24%.

On to CACCCTCTAAGAGACA (sugars k3 d10 k3, PS), for which the target mRNA inhibition came out at 1%.

Consider CAACTGGAAGCTCCTT (sugars k3 d10 k3, PS), for which the target mRNA inhibition is 23%.

In the case of AGAACTAGTGGTTCCC (sugars k3 d10 k3, PS), the target mRNA inhibition was -3%.

For the sequence AGCTGAGGCTTCCCGG (sugars k3 d10 k3, PS), the target mRNA inhibition worked out at 12%.

Consider GACCTCGACACCATCG (sugars k3 d10 k3, PS), for which the target mRNA inhibition worked out at 44%.

Take CTGCGGTTTCCTCAAG (sugars k3 d10 k3, PS): the target mRNA inhibition was 29%.

For TTAAGACCAAGGGAGG (sugars k3 d10 k3, PS), the target mRNA inhibition came to 29%.

As to GGTTACCAATAATTTC (sugars k3 d10 k3, PS), the target mRNA inhibition came out at 93%.

As for AGTCTACAAGTTACAT (sugars k3 d10 k3, PS), the target mRNA inhibition stood at 3%.

Turning to GCATTCCCACCCAAAA (sugars k3 d10 k3, PS), the target mRNA inhibition turned out to be 34%.

Take “AGGCAAACGAAACATTGGCA (sugars e5 d10 e5, PS)”: the target mRNA inhibition is 3% and 12%.

On to CGTGAGAACTGCTCTA (sugars k3 d10 k3, PS), for which the target mRNA inhibition was found to be 37%.

In the case of TAGGGCTTCTCAAAAC (sugars k3 d10 k3, PS), the target mRNA inhibition was 4%.

Regarding TCATACTGCCAGGCTG (sugars k3 d10 k3, PS), the target mRNA inhibition came out at 29%.

As for TTACTTCCGTTACGAA (sugars k3 d10 k3, PS), the target mRNA inhibition is -8%.

Consider GGCTATTACCTGAAAA (sugars k3 d10 k3, PS), for which the target mRNA inhibition turned out to be 6%.

With AATCAAGTCAAGCTCC (sugars k3 d10 k3, PS), the target mRNA inhibition turned out to be 14%.

For the sequence CCCCCCGCCTCAGTTA (sugars k3 d10 k3, PS), the target mRNA inhibition is -7%.

With AGTAAGCCCCACCCCC (sugars k3 d10 k3, PS), the target mRNA inhibition stood at 29%.

On to CAATCCTGAAATCCCC (sugars k3 d10 k3, PS), for which the target mRNA inhibition turned out to be 16%.

On to GGGTTATGCTTATTCC (sugars k3 d10 k3, PS), for which the target mRNA inhibition came to 28%.

Regarding TCCAGGATTAATGTAG (sugars k3 d10 k3, PS), the target mRNA inhibition came out at 48%.

GCTGAGTGTTCCTGCA (sugars k3 d10 k3, PS): the target mRNA inhibition was found to be 22%.

With AGGTATGACATATAAT (sugars k3 d10 k3, PS), the target mRNA inhibition is 35%.

Take ATTTTGTCCACTGGTG (sugars k3 d10 k3, PS): the target mRNA inhibition was found to be 50%.

Take GGCAAATCGCCATGGA (sugars k3 d10 k3, PS): the target mRNA inhibition came to 22%.

In the case of CTAGGGAAAAGTGGTT (sugars k3 d10 k3, PS), the target mRNA inhibition was -22%.

As to TACCGTTTTTCAGCTT (sugars k3 d10 k3, PS), the target mRNA inhibition is -31%.

Regarding CCTGTTAAGACCATCC (sugars k3 d10 k3, PS), the target mRNA inhibition came out at 40%.

For CTCGCTTTCCCTGTGG (sugars k3 d10 k3, PS), the target mRNA inhibition was found to be 17%.

Regarding TACCACCTTTTGAAGG (sugars k3 d10 k3, PS), the target mRNA inhibition came out at 13%.

Take ATTGGTATTAATTCGG (sugars k3 d10 k3, PS): the target mRNA inhibition was 70% and 75% and 92%.

For TCATATTTTAAACGGG (sugars k3 d10 k3, PS), the target mRNA inhibition was 23%.

With AAAAGGCTCGATGGAA (sugars k3 d10 k3, PS), the target mRNA inhibition stood at 11%.

The values are drawn from the OligoGym collection.
